The source of these data is US20260317333A1, “Heteroaryl Compounds as Ligand Directed Degraders of IRAK4” (Celgene Corporation, priority 2023, published 2026).

This experiment has as its target T1, IRAK4 (Homo sapiens, UniProt Q9NWZ3).
T1 sequence (Q9NWZ3 1-460): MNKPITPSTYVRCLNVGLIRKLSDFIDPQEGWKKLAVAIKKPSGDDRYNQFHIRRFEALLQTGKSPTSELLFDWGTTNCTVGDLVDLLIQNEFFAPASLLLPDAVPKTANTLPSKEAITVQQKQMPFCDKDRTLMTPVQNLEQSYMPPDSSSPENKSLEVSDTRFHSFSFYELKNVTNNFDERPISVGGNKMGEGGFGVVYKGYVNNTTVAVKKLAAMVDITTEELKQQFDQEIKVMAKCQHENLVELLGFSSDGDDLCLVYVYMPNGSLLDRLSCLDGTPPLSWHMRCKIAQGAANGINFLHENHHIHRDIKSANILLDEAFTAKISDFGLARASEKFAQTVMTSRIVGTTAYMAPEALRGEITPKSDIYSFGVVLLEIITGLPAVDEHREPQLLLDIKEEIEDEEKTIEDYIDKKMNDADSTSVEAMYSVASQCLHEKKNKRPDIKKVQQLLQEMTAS
Kind of experiment: ALE THP1 HTRF (IRAK4 degradation in THP1 cells, HTRF with anti-IRAK4 antibodies). It is filed as cell-based. More on the design: THP1 Homogeneous Time Resolved Fluorescence (ALE THP1 HTRF) Procedure; endogenous in cells; host or cells: THP1. The conditions noted are these: THP1 cell lysate; for DC50: read-out: ALE THP1 HTRF EC50. The procedure:
Cell culture media was prepared in a tissue culture hood in a sterile environment by adding 10% FBS and 1% Penicillin Streptomycin to 500 mL no phenol red RPMI 1640 media. The media was filtered through a Nalgene Bottle Top Filter and stored at 4° C.
For Homogenous Time Resolved Fluorescence (HTRF) assays, a Cisbio HTRF kit was used, which included: Lysis Buffer #1 4×, Blocking Reagent #3 100×, 20× Antibody 1 (Anti-IRAK4 d2), 20× Antibody 2 (Anti-IRAK4 k), and Detection Buffer.
4× Lysis Buffer was stored at 4° C. For use as 1× Lysis buffer, the 4× solution was diluted with de-ionized water (distilled water, Gibco Cat. #15230279) and 100× Blocking Reagent in a 1:3:0.04 volume ratio.
20× Antibody Solution aliquots were stored at −80° C. and the Detection Buffer was stored at 4° C. For use as a 1× Antibody Solution, the 20× Antibody Solution aliquot was diluted with Detection Buffer in a 1:19 volume ratio.
Cells were lysed at room temperature for 45 min with shaking. A BCA protein assay was performed and normalization was conducted to the desired total protein concentration with 1× lysis buffer. Next, 1× Antibody Solutions were prepared by adding 380 μL Detection Buffer to 20 μL 20× Antibody Solution aliquots and mixing well. 1× Antibody Solutions were combined 1:1 and briefly vortexed. For control wells, 20 μL 1× anti IRAK4-k Antibody Solution was saved. The 384-well plate (ProxiPlate-384 Plus, Perkin Elmer Cat. #6008289) was loaded by adding 4 μL of the mixed Antibody Solution to empty wells using a single channel repeater. Using a multi-channel repeater, 16 μL lysate was added per well, and any bubbles that were formed were popped with 20 μL pipette tips and Kimwipe edges. In column 10, triplicates of each control were prepared. In wells A10, B10, and C10, buffer control was prepared by adding 16 μL Lysis Buffer and 4 μL Detection Buffer. In wells D10, E10, and F10, cryptate control was prepared by adding 16 μL Lysis Buffer, 2 μL Detection Buffer, and 2 μL 1× anti-IRAK4-k Antibody Solution. In wells G10, H10, and I10, a negative control was prepared by adding 16 μL Lysis Buffer and 4 μL mixed Antibody Solution. The plate was sealed with a clear seal and covered with an aluminum lid. The plate was spun down at 800 g for 5 min and incubated in the dark at room temperature overnight. The next day, the plate was spun down at 800 g for 5 min. The samples were analyzed by a plate reader (Envision, PerkinElmer) using the Desnor 384 HTRF program.
For orientation: In TR-FRET formats the signal depends on donor and acceptor labels being close together.

Molecules are shown by their SMILES. Counter-ions that a name gives are not always drawn.

Turning to `N[C@@H]1C[C@@H](F)CN(c2ccn3ncc(C(=O)Nc4cn([C@H]5CC[C@H](CCN6CCC(Nc7cccc(C8CCC(=O)NC8=O)c7)CC6)CC5)nc4C(F)F)c3n2)C1` (stereo partly drawn) [Compound P-24, 5-((3R,5R)-3-Amino-5-fluoropiperidin-1-yl)-N-(3-(difluoromethyl)-1-((1r,4r)-4-(2-(4-((3-(2,6-dioxopiperidin-3-yl)phenyl)amino)piperidin-1-yl)ethyl)cyclohexyl)-1H-pyrazol-4-yl) pyrazolo[1,5-a]pyrimidine-3-carboxamide dihydrochloride], the “ALE THP1 HTRF YMIN” value is 12% and the DC50 was 12 nM.

In the case of `N[C@@H]1C[C@@H](F)CN(c2ccn3ncc(C(=O)Nc4cn([C@H]5CC[C@H](C(=O)NC6CCN(c7ccc(C8CCC(=O)NC8=O)nc7)CC6)CC5)nc4C(F)F)c3n2)C1` (some centres unmarked) [Compound P-25], the “ALE THP1 HTRF YMIN” value is listed as 15% and the DC50 is 6 nM.

Turning to `N[C@@H]1C[C@@H](F)CN(c2ccn3ncc(C(=O)Nc4cn([C@H]5CC[C@H](CCN6CCC7(CC6)CN(c6cccc(C8CCC(=O)NC8=O)c6)C7)CC5)nc4C(F)F)c3n2)C1` (some centres unmarked) [Compound P-26], the “ALE THP1 HTRF YMIN” value stood at 7% and the DC50 was found to be 15 nM.

As for `N[C@@H]1C[C@@H](F)CN(c2ccn3ncc(C(=O)Nc4cn(C5CCN(CCN6CCN(c7ccc(C8CCC(=O)NC8=O)cc7)CC6)CC5)nc4C(F)F)c3n2)C1` (stereo partly drawn) [Compound P-27, 5-((3R,5R)-3-Amino-5-fluoropiperidin-1-yl)-N-(3-(difluoromethyl)-1-(1-(2-(4-(4-(2,6-dioxopiperidin-3-yl)phenyl)piperazin-1-yl)ethyl)piperidin-4-yl)-1H-pyrazol-4-yl) pyrazolo[1,5-a]pyrimidine-3-carboxamide trihydrochloride], the “ALE THP1 HTRF YMIN” value is reported as 16% and the DC50 stood at 10 nM.

In the case of `N[C@@H]1C[C@@H](F)CN(c2ccn3ncc(C(=O)Nc4cn([C@H]5CC[C@H](CCN6CCC[C@H](c7ccc(C8CCC(=O)NC8=O)cc7)C6)CC5)nc4C(F)F)c3n2)C1` (some centres unmarked) [Compound P-28], the “ALE THP1 HTRF YMIN” value is over 95% and the DC50 was over 10000 nM.

Consider `N[C@@H]1C[C@@H](F)CN(c2ccn3ncc(C(=O)Nc4cn([C@H]5CC[C@H](C(=O)N[C@H]6CC[C@@H](c7ccc(C8CCC(=O)NC8=O)nc7)CC6)CC5)nc4C(F)F)c3n2)C1` (some centres unmarked) [Compound P-30], for which the “ALE THP1 HTRF YMIN” value is listed as over 95% and the DC50 is over 10000 nM.

With `N[C@@H]1C[C@@H](F)CN(c2ccn3ncc(C(=O)Nc4cn([C@H]5CC[C@H](C(=O)N[C@H]6CC[C@@H](c7ccc(C8CCC(=O)NC8=O)cn7)CC6)CC5)nc4C(F)F)c3n2)C1` (some centres unmarked) [Compound P-31], the “ALE THP1 HTRF YMIN” value is over 95% and the DC50 was over 10000 nM.

Regarding `N[C@@H]1C[C@@H](F)CN(c2ccn3ncc(C(=O)Nc4cn([C@H]5CC[C@H](C(=O)NC6CCN(c7ccc(C8CCC(=O)NC8=O)cn7)CC6)CC5)nc4C(F)F)c3n2)C1` (stereo partly drawn) [Compound P-32, N-[3-(Difluoromethyl)-1-[4-[[1-[5-(2,6-dioxo-3-piperidyl)-2-pyridyl]-4-piperidyl]carbamoyl]cyclohexyl]pyrazol-4-yl]-5-[(3R,5R)-3-amino-5-fluoro-1-piperidyl]pyrazolo[1,5-a]pyrimidine-3-carboxamide hydrochloride], the “ALE THP1 HTRF YMIN” value is 21% and the DC50 was 5 nM.

In the case of `N[C@@H]1C[C@@H](F)CN(c2ccn3ncc(C(=O)Nc4cn([C@H]5CC[C@H](C(=O)N[C@H]6CC[C@H](c7ccc(C8CCC(=O)NC8=O)cn7)CC6)CC5)nc4C(F)F)c3n2)C1` (some centres unmarked) [Compound P-33], the “ALE THP1 HTRF YMIN” value is reported as 22% and the DC50 was 3 nM.

As for `N[C@@H]1C[C@@H](F)CN(c2ccn3ncc(C(=O)Nc4cn([C@H]5CC[C@H](C(=O)N[C@H]6CC[C@H](c7ccc(C8CCC(=O)NC8=O)nc7)CC6)CC5)nc4C(F)F)c3n2)C1` (some centres unmarked) [Compound P-34], the “ALE THP1 HTRF YMIN” value was found to be 13% and the DC50 worked out at 5 nM.
